Data on 19 compounds can be found in PubChem BioAssay (NCI).

Some test systems named below: NCI/ADR-RES ovarian; HL-60(TB) leukemia; MCF7 breast; HCT-15 colon; MOLT-4 leukemia; UO-31 renal; UACC-62 melanoma.
Holding throughout (assay): NCI tumour cell line growth inhibition, 48 h

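Exposure lasted 48 hours, with cells grown in 96-well plates and compounds tested at five concentrations. TGI: total growth inhibition.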

Take `COc1ccc(N=C(C)C(C)=Nc2ccc(OC)cc2)cc1`: the TGI in the test with NCI/ADR-RES ovarian, in the test on HL-60(TB) leukemia, with MCF7 breast, in the test with HCT-15 colon, with MOLT-4 leukemia and in the test on UO-31 renal was above 100 µM throughout.

Turning to `C[C@@H]([C@H]1CC[C@@]2(C)[C@@H]3CC[C@@H]4C(=CC3=CC[C@]12C)CC[C@H](N(C)C)C4(C)C)N(C)C`, the TGI with UACC-62 melanoma, in the test on NCI/ADR-RES ovarian, in the test on HL-60(TB) leukemia, with MCF7 breast, in the test on HCT-15 colon and in the test on MOLT-4 leukemia was above 100 µM throughout.

Take `COc1c(NC(C)=O)c2ccccc2c2ccccc12`: the TGI in the test with UACC-62 melanoma, in the test with NCI/ADR-RES ovarian, in the test with HL-60(TB) leukemia, in the test on HCT-15 colon, with MOLT-4 leukemia and in the test on UO-31 renal was above 100 µM each time.

With `COc1ccc(-c2c(/C=N/OCC(=O)O)c3sc4ccccc4n3c2/C=N/OCC(=O)O)cc1`, the TGI with UACC-62 melanoma, in the test with NCI/ADR-RES ovarian, in the test with MCF7 breast, in the test with HCT-15 colon, in the test with MOLT-4 leukemia and in the test with UO-31 renal was above 50 µM throughout.

`CC(C)(C)N=C1C(=O)C2(C)CCC1C2(C)C` (centres undefined): the TGI with UACC-62 melanoma was 34.8 µM; with NCI/ADR-RES ovarian it was above 100 µM; in the test on MCF7 breast it was above 100 µM; with HCT-15 colon it was above 100 µM; with UO-31 renal, above 100 µM.

With `C[C@H](NC(=O)C(C)(Cc1ccc(O)cn1)NC(=O)c1ccccc1)c1ccccc1` (some centres undefined), the TGI in the test on UACC-62 melanoma, with NCI/ADR-RES ovarian, in the test with HL-60(TB) leukemia, with MCF7 breast, in the test with HCT-15 colon and with MOLT-4 leukemia was above 100 µM throughout. For the same compound, the TGI with UO-31 renal is above 100 µM.

With `CC(C)=CCNc1ncnc2c1ncn2CCC(=O)O`, the TGI with UACC-62 melanoma, in the test with NCI/ADR-RES ovarian, with HL-60(TB) leukemia, with MCF7 breast, in the test with HCT-15 colon and in the test on MOLT-4 leukemia was above 100 µM each time. Moreover, in the test with UO-31 renal, the TGI was above 100 µM.

In the case of `COC(=O)c1ccc(C)cc1C1CN=NC12Cc1cccc(C)c1C2=O` (centres undefined), the TGI was 53.1 µM in the test on UACC-62 melanoma; 67.1 µM with NCI/ADR-RES ovarian; 49.8 µM in the test on HL-60(TB) leukemia; above 100 µM in the test on MCF7 breast; above 100 µM with HCT-15 colon; 43.1 µM with MOLT-4 leukemia. The TGI in the test with UO-31 renal turned out to be 78.3 µM.

Turning to `O=Cc1c2c(cc3c1CC1(C3)Cc3cc4c(c(C=O)c3C1)CCC4)CCC2`, the TGI in the test on UACC-62 melanoma was 62.3 µM; with NCI/ADR-RES ovarian, above 100 µM; in the test on HL-60(TB) leukemia it was 55.7 µM; in the test on MCF7 breast, above 100 µM; with HCT-15 colon, above 100 µM; in the test with MOLT-4 leukemia, 48.7 µM. Further, the TGI in the test on UO-31 renal came to 6.38 µM.

In the case of `COc1ccc(/C=C/C(=O)c2cc(CN(C)C)c(O)c(CN(C)C)c2)cc1`, the TGI was above 100 µM in the test on NCI/ADR-RES ovarian; 54.5 µM in the test with HL-60(TB) leukemia; above 100 µM in the test on MCF7 breast; above 100 µM in the test on HCT-15 colon; above 100 µM in the test on MOLT-4 leukemia; 86.9 µM with UO-31 renal.

With `C=CC(C)(C)/C(=C\CO[Si](C(C)C)(C(C)C)C(C)C)C(=O)N(C)c1ccccc1I`, the TGI was 28.7 µM with UACC-62 melanoma; 37.6 µM with NCI/ADR-RES ovarian; 11.4 µM in the test on HL-60(TB) leukemia; 26.1 µM in the test on MCF7 breast; 30.8 µM with HCT-15 colon; 25.2 µM with MOLT-4 leukemia. The compound further came in with a TGI in the test with UO-31 renal of 25.9 µM.

For the compound `CN(C)Cc1cc(/C=C/C(=O)c2ccc(Br)cc2)cc(CN(C)C)c1O`, the TGI in the test on UACC-62 melanoma is 39.1 µM; in the test on NCI/ADR-RES ovarian it was above 100 µM; with HL-60(TB) leukemia, 50.6 µM; with MCF7 breast, 50.5 µM; in the test with MOLT-4 leukemia it was 42.9 µM; in the test on UO-31 renal, 23.2 µM.

Turning to `CCOC(=O)c1cnc2n(c1=O)[C@H]1CCCC[C@@H]1N2`, the TGI in the test on UACC-62 melanoma, in the test with NCI/ADR-RES ovarian, in the test on HL-60(TB) leukemia, in the test on MCF7 breast, with HCT-15 colon and in the test on MOLT-4 leukemia was above 100 µM each time. This compound also registered a TGI with UO-31 renal above 100 µM.

`O=C(NC1=C(Cl)C(=O)c2ccccc2C1=O)C(=O)c1c(O)c2ccccc2oc1=O`: the TGI turned out to be 4.58 µM in the test with UACC-62 melanoma; 20 µM with NCI/ADR-RES ovarian; 29.1 µM in the test on HL-60(TB) leukemia; 8.39 µM with MCF7 breast; 13.7 µM with HCT-15 colon; 18 µM in the test on MOLT-4 leukemia. The compound further returned a TGI in the test on UO-31 renal of 21.1 µM.

With `Cc1cc(NS(=O)(=O)c2ccc(Nc3c4ccccc4nc4c(C(=O)NC(CO)(CO)CO)cccc34)cc2)no1`, the TGI is 75.1 µM with UACC-62 melanoma; above 100 µM in the test on NCI/ADR-RES ovarian; above 100 µM in the test with HL-60(TB) leukemia; above 100 µM with MCF7 breast; above 100 µM in the test with HCT-15 colon; 49 µM with MOLT-4 leukemia. Besides, in the test on UO-31 renal, the TGI was above 100 µM.

On to `C#CC(O)/C=C/C(O)CCCC(O)CC#CC(O)C#CCCCCC(O)/C=C/CCCC(=O)CCCCCCCCCCCCCCCC(O)C(O)C#CC(=O)O` (centres undefined), for which the TGI with UACC-62 melanoma, in the test on NCI/ADR-RES ovarian, with HL-60(TB) leukemia, in the test on MCF7 breast, with HCT-15 colon and in the test with MOLT-4 leukemia was above 25 µM each time. Also, the TGI in the test with UO-31 renal is above 25 µM.

For the compound `Oc1ccc(Nc2nc(Cl)c3[nH]cnc3n2)cc1`, the TGI in the test with UACC-62 melanoma, in the test on NCI/ADR-RES ovarian, in the test on HL-60(TB) leukemia, in the test with MCF7 breast, in the test with HCT-15 colon and in the test on MOLT-4 leukemia was above 100 µM throughout. In addition, the TGI with UO-31 renal is above 100 µM.

With `Cc1cc2ccccc2oc(=O)/c1=N\Nc1ccccc1`, the TGI in the test with UACC-62 melanoma, in the test with NCI/ADR-RES ovarian, with HL-60(TB) leukemia, in the test on MCF7 breast, in the test with HCT-15 colon and in the test on MOLT-4 leukemia was above 100 µM throughout. For the same compound, the TGI in the test on UO-31 renal was above 100 µM.

With `C=C1c2nc3ccccc3n2C=C(c2ccccc2)N1c1ccc(C)cc1`, the TGI with UACC-62 melanoma, with NCI/ADR-RES ovarian, in the test on MCF7 breast, in the test on HCT-15 colon, in the test on MOLT-4 leukemia and in the test on UO-31 renal was above 100 µM each time.
